Laboratory results from patent US7531545B2, “2-amino-3,4-dihydro-pyrido[3,4-d]pyrimidine derivatives useful as inhibitors of β-secretase (BACE)” (Janssen Pharmaceutica, N.V., priority 2005, dated 2009).

Target: human BACE-1 (Homo sapiens, UniProt P56817)
Test: CEREP BACE Inhibition Assay
Type: biochemical
Details: recombinant enzyme; for % Inhibition @ 1.0 μM / inhibition at 1 µM: percent inhibition of the control activity; for IC50: read-out: IC50; for inhibition at 1 µM: read-out: % Inhibition @ 1.0 μM
Procedure: More specifically the assay, run at 50 μL in a 96 well plate, evaluated the effect of test compound on the activity of the human BACE-1 quantified by measuring the formation of Mca-S-E-V-N-L-NH2 from […], using a recombinant enzyme. The test compound, reference compound or water (control) were added to a buffer containing 0.09 M sodium acetate (pH 4.5) and 0.25 μg BACE-1. Compound interference with the fluorimetric detection method due to autofluorescence was then checked by measurements at the wavelengths defined to evaluate the enzyme activity. […] For control basal measurement, the substrate was omitted from the reaction mixture. […] The standard inhibitory reference compound was OM99-2, which was tested in each experiment at several concentrations to obtain an inhibition curve from which its IC50 value was calculated.

Sequence of human BACE-1 (P56817 46-501): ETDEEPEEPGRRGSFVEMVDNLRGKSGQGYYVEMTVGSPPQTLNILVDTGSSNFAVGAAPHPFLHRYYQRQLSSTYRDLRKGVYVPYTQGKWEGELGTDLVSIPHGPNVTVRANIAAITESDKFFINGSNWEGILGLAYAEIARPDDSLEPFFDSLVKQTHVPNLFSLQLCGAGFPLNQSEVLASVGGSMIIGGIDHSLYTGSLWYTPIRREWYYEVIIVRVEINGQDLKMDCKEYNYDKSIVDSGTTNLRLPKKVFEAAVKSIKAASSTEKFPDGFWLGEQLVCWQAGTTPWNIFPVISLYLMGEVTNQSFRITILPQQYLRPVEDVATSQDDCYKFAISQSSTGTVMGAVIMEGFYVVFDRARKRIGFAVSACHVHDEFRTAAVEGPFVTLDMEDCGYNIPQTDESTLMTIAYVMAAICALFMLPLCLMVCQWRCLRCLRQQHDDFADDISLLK

With `CC(C)(C)CNC(=O)CC[C@@H](C1CCCCC1)N1Cc2cc(Oc3ccccc3)ncc2N=C1N` [Compound 160] the “% Inhibition @ 1.0 μM” value was 101% and the IC50 was 66 nM.

`CC(C)(C)CNCCC[C@@H](C1CCCCC1)N1Cc2cc(Oc3ccccc3)ncc2N=C1N` [Compound 161] showed an inhibition at 1 µM of 94% and an IC50 of 200 nM.

In the case of `CC(C)(C)OCCN(Cc1ccccn1)C(=O)CC[C@@H](C1CCCCC1)N1Cc2cc(Oc3ccccc3)ncc2N=C1N` [Compound 162], the “% Inhibition @ 1.0 μM” value is reported as 99% and the IC50 is reported as 90 nM.

With `NC1=Nc2cnc(Oc3ccccc3)cc2CN1[C@@H](CCC(=O)N1CCOCC1)C1CCCCC1` [Compound 166] the inhibition at 1 µM was 85% and the IC50 was 200 nM.

`CC(C)(C)OC[C@H](CN)NCCC[C@@H](C1CCCCC1)N1Cc2cc(Oc3ccccc3)ncc2N=C1N` [Compound 167, N^2-[4-(2-Amino-6-phenoxy-4H-pyrido[3,4-d]pyrimidin-3-yl)-4-cyclohexyl-butyl]-3-tert-butoxy-propane-1,2-diamine] gave an inhibition at 1 µM of 82% and an IC50 of 520 nM.

With `CC(C)(C)OC[C@H](CN)NC(=O)CC[C@@H](C1CCCCC1)N1Cc2cc(Oc3ccccc3)ncc2N=C1N` [Compound 168, N-(2-Amino-1-tert-butoxymethyl-ethyl)-4-(2-amino-6-phenoxy-4H-pyrido[3,4-d]pyrimidin-3-yl)-4-cyclohexyl-butyramide] the inhibition at 1 µM was 101%.

Work on `CN(C(=O)CCC(C1CCCCC1)N1Cc2cc(Oc3ccccc3)ncc2N=C1N)C1CCS(=O)(=O)C1` (stereo not shown) [Compound 170] yielded an inhibition at 1 µM of 48% and an IC50 of 830 nM.

Compound `CN(CCO)C(=O)CC[C@@H](C1CCCCC1)N1Cc2cc(Oc3ccccc3)ncc2N=C1N` [Compound 171] has an inhibition at 1 µM of 77% and an IC50 of 270 nM.

For `Cn1c(CN(CCC(C)(C)C)C(=O)CC[C@@H](C2CCCCC2)N2Cc3cc(Oc4ccccc4)ncc3N=C2N)nc(Cl)c1Cl` [Compound 172], the inhibition at 1 µM was 99% and the IC50 was 170 nM.

Work on `CCOCCCNC(=O)CC[C@@H](C1CCCCC1)N1Cc2cc(Oc3ccccc3)ncc2N=C1N` [Compound 173] yielded an inhibition at 1 µM of 92% and an IC50 of 130 nM.

Work on `CC(C)(C)CCN(CCN1CCOCC1)C(=O)CC[C@@H](C1CCCCC1)N1Cc2cc(Oc3ccccc3)ncc2N=C1N` [Compound 174] yielded an inhibition at 1 µM of 100% and an IC50 of 86 nM.

Work on `CC(C)[C@H](CCC(=O)N[C@H](C)CO)N1Cc2cc(Oc3ccccc3)ncc2N=C1N` [Compound 175] yielded an inhibition at 1 µM of 93% and an IC50 of 97 nM.

`NC1=Nc2cnc(Oc3ccccc3)cc2CN1[C@@H](CCC(=O)N(CCOCCOCCOCCO)C1CCCCC1)C1CCCCC1` [Compound 176, 4-(2-Amino-6-phenoxy-4H-pyrido[3,4-d]pyrimidin-3-yl)-4-(S),N-dicyclohexyl-N-(2-{2-[2-(2-hydroxy-ethoxy)-ethoxy]-ethoxy}-ethyl)-butyramide] gave an inhibition at 1 µM of 101% and an IC50 of 140 nM.

`C[C@@H](O)[C@H](CCC(=O)N(C)C1CCCCC1)N1Cc2cc(Oc3ccccc3)ncc2N=C1N` [Compound 177] showed an inhibition at 1 µM of 80% and an IC50 of 320 nM.

For `CC(C)(CO)CNC(=O)CC[C@@H](C1CCCCC1)N1Cc2cc(Oc3ccccc3)ncc2N=C1N` [Compound 179], the inhibition at 1 µM was 100% and the IC50 was 81 nM.

With `CC(C)(CO)NC(=O)CC[C@@H](C1CCCCC1)N1Cc2cc(Oc3ccccc3)ncc2N=C1N` [Compound 180] the inhibition at 1 µM was 99% and the IC50 was 91 nM.

In the case of `CC(C)(C)OCCNC(=O)CC[C@@H](C1CCCCC1)N1Cc2cc(Oc3ccccc3)ncc2N=C1N` [Compound 181], the inhibition at 1 µM is reported as 96% and the IC50 is reported as 85 nM.

`CC(C)(C)CCN(CCC[C@@H](C1CCCCC1)N1Cc2cc(Oc3ccccc3)ncc2N=C1N)CCN1CCOCC1` [Compound 182] showed an inhibition at 1 µM of 100% and an IC50 of 89 nM.

`C[C@H](CO)N(C)C(=O)CC[C@@H](C1CCCCC1)N1Cc2cc(Oc3ccccc3)ncc2N=C1N` [Compound 183] was tested, and the inhibition at 1 µM was 70% and the IC50 was 580 nM.

For `C[C@H](CO)N(C)CCC[C@@H](C1CCCCC1)N1Cc2cc(Oc3ccccc3)ncc2N=C1N` [Compound 184], the inhibition at 1 µM was 45% and the IC50 was 2300 nM.

With `C[C@@H](OCc1ccccc1)[C@H](CCC(=O)N(CCC(C)(C)C)Cc1ccncc1)N1Cc2cc(Oc3ccccc3)ncc2N=C1N` [Compound 185, 4-(S)-(2-Amino-6-phenoxy-4H-pyrido[3,4-d]pyrimidin-3-yl)-5-(R)-benzyloxy-hexanoic acid (3,3-dimethyl-butyl)-pyridin-4-ylmethyl-amide] the inhibition at 1 µM was 85% and the IC50 was 270 nM.

`C[C@@H](O)[C@H](CCC(=O)NCC(C)(C)C)N1Cc2cc(Oc3ccccc3)ncc2N=C1N` [Compound 186, 4-(S)-(2-Amino-6-phenoxy-4H-pyrido[3,4-d]pyrimidin-3-yl)-5-(R)-hydroxy-hexanoic acid (2,2-dimethyl-propyl)-amide] was tested, and the inhibition at 1 µM was 81% and the IC50 was 190 nM.
